The subject of assay [1] is multidrug resistant Plasmodium falciparum clone W-2. Kind of assay: antimalarial activity using multidrug resistant Plasmodium falciparum clone W-2. The assay is classed as cell-based. Particulars: read-out: IC50, ng/ml CLONE W-2. Here is the method: (§1) Referring to Table 2, the antimalarial activity of compounds of formula 1 were tested using the multidrug resistant Plasmodium falciparum clone W-2. The methods for the growth of the malaria parasite, the testing of drugs for antimalarial effects and the clone are described in Science 242, 1301-1303 1988.

For assay [2] the test system is unchanged. Kind of assay: reversal of the chloroquine resistance in clone W-2. It counts as cell-based. The procedure:
as §1

Assay [3] relates to chloroquine-sensitive strain of Plasmodium falciparum (clone D6). Kind of assay: antimalarial activity against chloroquine-sensitive strain of Plasmodium falciparum (clone D6). The assay is classed as cell-based. The procedure:
As shown by Table 1, the compounds of the present invention have antimalarial activity on their own without other antimalarial agents. This antimalarial activity can be tested using a number of methods. For example, the compounds of formula 1 listed in Table 1 were tested for antimalarial activity against chloroquine-sensitive strain of Plasmodium falciparum (clone D6).
The methods for the growth of the malaria parasite, the testing of drugs for antimalarial effects and the clone are described in Science 242, 1301-1303 1988.

Assay [4] has as its system chloroquine-resistant Plasmodium falciparum. The experiment in a line: synergistic effect with chloroquine, isobologram analysis. It counts as cell-based. Particulars: chloroquine-resistant P. falciparum, data not shown. Here is the method: Isobologram analysis was carried out according to the method of Martin, et al., (1987) Science 235, 899-901 and Berenbaum, (1978) Journal of Infectious Diseases 137, 122-130 (data not shown).

Another assay concerns Plasmodium falciparum. Particulars: as described in Science 242, 1301-1303 1988; cited from earlier work.
Where [5] appears, read: 50% reversal of the chloroquine resistance in clone W-2, read-out: Conc. in ng/ml for 50% Reversal of chloroquine.
Where [6] appears, read: chloroquine-sensitive clone D6, read-out: IC50, ng/ml CLONE D6.
[7] abbreviates: D6, read-out: IC50, ng/ml CLONE D6.

Structures are written as SMILES. Converted amounts (≈) assume the structure as drawn. Counter-ions that a name gives are not always drawn. Like-named read-outs stand apart in the source and are kept apart here.

For `CN(CCCN1c2ccccc2CCc2ccccc21)CC(=O)N(C)CCCN1c2ccccc2CCc2ccccc21` [Example 1, N,N'-Bis[3-(10,11-dihydro-5H-dibenzo[b,f]azepino)propyl]-N,N'-dimethylacetamide Oxalate], the IC50 in assay [1] amounted to 3570 ng/mL. Moreover, in assay [2] (setting [5]), the EC50 is greater than 200 ng/mL.

With `CN(CCCN1c2ccccc2CCc2ccccc21)CCN(C)CCCN1c2ccccc2CCc2ccccc21` [Example 2, N,N'-Bis[3-(10,11-dihydro-5H-dibenzo[b,f]azepino)propyl]-N,N'-dimethylethanediamine Maleate], in assay [1], the IC50 came to 1510 ng/mL. Also, the EC50 in assay [2] (setting [5]) is greater than 200 ng/mL.

For `CN(CCCN(C)CCCN1c2ccccc2CCc2ccccc21)CCCN1c2ccccc2CCc2ccccc21` [Example 3, N,N'-Bis[3-(10,11-dihydro-5H-dibenzo[b,f]azepino)propyl]-N,N'-dimethylpropanediamine Maleate], in assay [1], the IC50 came to 385 ng/mL. Further, the EC50 in assay [2] (setting [5]) amounted to 72 ng/mL.

With `CN(CCCCN(C)CCCN1c2ccccc2CCc2ccccc21)CCCN1c2ccccc2CCc2ccccc21` [Example 4, N,N'-Bis[3-(10,11-dihydro-5H-dibenzo[b,f]azepino)propyl]-N,N'-dimethylbutanediamine Fumarate], the IC50 in assay [1] was found to be 56 ng/mL; in assay [3] (setting [6]), 240 ng/mL. Also, the EC50 in assay [2] (setting [5]) worked out at 14 ng/mL. In assay [4], the “synergistic effect with antimalarial agents” value is reported as “synergistic effect with chloroquine”.

As for `CN(CCCCCN(C)CCCN1c2ccccc2CCc2ccccc21)CCCN1c2ccccc2CCc2ccccc21` [Example 5, N,N'-Bis[3-(10,11-dihydro-5H-dibenzo[b,f]azepino)propyl]-N,N'-dimethylpentanediamine Maleate], the IC50 in assay [1] was 180 ng/mL. In assay [2] (setting [5]), the EC50 is 56 ng/mL.

Regarding `CN(CCCCCCN(C)CCCN1c2ccccc2CCc2ccccc21)CCCN1c2ccccc2CCc2ccccc21` [Example 6, N,N'-Bis[3-(10,11-dihydro-5H-dibenzo[b,f]azepino)propyl]-N,N'-dimethylhexanediamine Fumarate], the IC50 in assay [1] was 140 ng/mL; in assay [3] (setting [6]), 210 ng/mL. In addition, the EC50 in assay [2] (setting [5]) amounted to 52 ng/mL.

On to `c1ccc2c(c1)CCc1ccccc1N2CCCNCCCCNCCCN1c2ccccc2CCc2ccccc21` [Example 8, N,N'-Bis[3-(10,11-dihydro-5H-dibenzo[b,f]azepino)propyl]butanediamine Maleate], for which the IC50 stood at 110 ng/mL in assay [1] and 48 ng/mL in assay [3] (setting [6]). In addition, the EC50 in assay [2] (setting [5]) was 105 ng/mL.

In the case of `c1ccc2c(c1)CCc1ccccc1N2CCCN1CCN(CCCN2c3ccccc3CCc3ccccc32)CC1` [Example 9, 1,4-Bis[3-(10,11-dihydro-5H-dibenzo[b,f]azepino)propyl]piperazine Maleate], in assay [1], the IC50 is greater than 5000 ng/mL. Further, in assay [2] (setting [5]), the EC50 was greater than 200 ng/mL.

`CCN(CC)CCCC(C)Nc1ccnc2cc(Cl)ccc12` (centres unmarked) [chloroquine, reference compound]: the IC50 in assay [1] was determined as 160 ng/mL (≈ 0.5 µM); in assay [3] (setting [7]) it was 7 ng/mL (≈ 0.0219 µM).

For the molecule `CNCCCN1c2ccccc2CCc2ccccc21` [desipramine, reference compound], the IC50 in assay [1] was found to be 300 ng/mL (≈ 1.13 µM); in assay [3] (setting [7]), 15000 ng/mL (≈ 56.3 µM). Also, the EC50 in assay [2] (read-out: Conc. in ng/ml for 50% Reversal of chloroquine) was determined as 35 ng/mL. Moreover, the “utility in reversing chloroquine resistance” value with Plasmodium falciparum is “shown to have utility in reversing chloroquine resistance”.

The record behind these values is US5182387A, “Bis-dibenzoazepine compounds” (Merrell Dow Pharmaceuticals Inc., priority 1991, dated 1993).
